Measured values: patent US20240269139A1, “COMPOUNDS FOR TARGETED PROTEIN DEGRADATION OF KINASES” (DANA-FARBER CANCER INSTITUTE, INC., priority 2020, published 2024)
Where two headings read alike, the source gives them in different places.

Assays:
[1] = tested on: protein kinases (human kinome); assay type: cell-based; details: for logFC of FER: FER P16591-3; for logFC LCK: accession P06239-3; for logFC RPS6KA1: RPS6KA1 (Q15418-2)
[2] = target: T1, extended human kinome (kinase-like proteins) (Homo sapiens, UniProt P54886); assay: Whole cell quantitative proteomics: extended kinome hits; details: Accession P54886; experiment wp160; 1 hr
T1 sequence (P54886 1-795): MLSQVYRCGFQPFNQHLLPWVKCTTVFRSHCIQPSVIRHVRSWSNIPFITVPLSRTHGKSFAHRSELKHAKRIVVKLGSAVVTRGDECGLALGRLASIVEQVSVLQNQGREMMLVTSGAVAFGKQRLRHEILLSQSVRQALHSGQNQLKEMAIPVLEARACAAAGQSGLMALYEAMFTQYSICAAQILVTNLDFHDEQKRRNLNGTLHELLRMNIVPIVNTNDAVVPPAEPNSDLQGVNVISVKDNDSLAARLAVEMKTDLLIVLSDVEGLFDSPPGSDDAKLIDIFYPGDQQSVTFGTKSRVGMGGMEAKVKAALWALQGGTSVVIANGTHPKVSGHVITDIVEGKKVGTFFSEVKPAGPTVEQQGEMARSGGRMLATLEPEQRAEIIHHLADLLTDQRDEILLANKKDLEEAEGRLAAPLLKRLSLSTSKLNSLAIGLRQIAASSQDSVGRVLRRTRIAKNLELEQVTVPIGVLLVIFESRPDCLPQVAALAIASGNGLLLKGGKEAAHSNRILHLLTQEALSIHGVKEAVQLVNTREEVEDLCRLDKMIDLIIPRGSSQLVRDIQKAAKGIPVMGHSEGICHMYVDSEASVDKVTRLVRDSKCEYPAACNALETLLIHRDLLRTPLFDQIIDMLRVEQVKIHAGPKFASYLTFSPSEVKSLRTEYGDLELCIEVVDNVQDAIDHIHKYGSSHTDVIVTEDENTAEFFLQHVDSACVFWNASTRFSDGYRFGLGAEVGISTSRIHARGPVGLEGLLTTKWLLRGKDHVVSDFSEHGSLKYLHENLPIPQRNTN

[3] = Experiment wp107, direction down
[4] = experiment wp016, 1 uM, direction of change down
[5] = experiment wp016, direction of change down
[6] = experiment wp103, direction of change down
[7] = experiment wp107, direction of change down
[8] = experiment wp133, 2 hr, direction of change down
[9] = experiment wp133, 4 hr, direction of change down

CC(C)S(=O)(=O)c1ccccc1Nc1nc(Nc2ccc(N3CCN(CCOCCNC(=O)CNc4cccc5c4C(=O)N(C4CCC(=O)NC4=O)C5=O)CC3)cc2)ncc1Cl (centres unmarked) [SK.3.91]
logFC CDK9 (P50750-2) ([1]; Experiment wp103): −0.7857 | logFC PRKAA1 (Q13131-2) ([1]; Experiment wp103, direction down): −0.5012 | logFC PRKAA1 (Q13131-2) ([1]; Experiment wp105, direction down): −0.4413 | logFC MAP3K12 (Q12852-2) ([1]; Experiment wp105, direction of change down): −0.6931 | logFC CDK9 (P50750-2) ([1]; Experiment wp107): −1.2 | logFC of CDK12 (Q9NYV4-2) ([1]; Experiment wp107): −1.042 | logFC PRKAA1 (Q13131-2) [1, 3]: −0.6352 | logFC TNK2 (Q07912-3) [1, 3]: −1.18 | logFC of CDK18 (Q07002-3) ([1]; Experiment wp114): −0.8295 | logFC TNK1 (Q13470-2) ([1]; Experiment wp114, direction of change down): −0.7394 | logFC PRKAA1 (Q13131-2) ([1]; Experiment wp133, 2 hr, direction down): −0.3804 | logFC PRKAA1 (Q13131-2) ([1]; Experiment wp133, 4 hr, direction down): −0.6752 | logFC of CDK12 (Q9NYV4-2) ([1]; Experiment wp160, 2 hr): −0.4558 | logFC ABL2 (P42684-5) ([1]; Experiment wp172): −0.7139 | logFC of ABL2 (P42684-5) ([1]; Experiment wp172): −0.7139 | logFC ([1]; FER (P16591-3), experiment wp114, direction down): −2.308 | logFC ([1]; FER (P16591-3), experiment wp172, direction down): −2.816 | logFC of FER ([1]; experiment wp114): −2.308 | logFC of FER ([1]; experiment wp172): −2.816 | logFC LCK [1, 4]: −1.579 | logFC LCK [1, 5]: −0.9189 | logFC LCK [1, 6]: −1.148 | logFC LCK [1, 7]: −1.575 | logFC LCK [1, 8]: −0.5352 | logFC LCK [1, 9]: −1.277 | logFC ([1]; LIMK2 (P53671-3), experiment wp105, direction down): −0.8401 | logFC of LIMK2 ([1]; LIMK2 P53671-3, experiment wp105): −0.8401 | logFC ([1]; MARK2 Q7KZI7-14, experiment wp105): −0.4159 | logFC ([1]; MARK2 Q7KZI7-14, experiment wp133, 4 hr): −0.4086 | logFC ([1]; PIP5K1A (Q99755-3), experiment wp107): −0.45 | logFC ([1]; PIP5K1A (Q99755-3), experiment wp133, 4 hr): −0.3712 | logFC ([1]; PTK2B (Q14289-2), experiment wp107, direction down): −3.126 | logFC PTK2B ([1]; PTK2B, accession Q14289-2, experiment wp107, direction of change down): −3.126 | logFC RPS6KA1 ([1]; experiment wp016, 1 uM): −0.4146 | logFC RPS6KA1 ([1]; experiment wp133, 4 hr): −0.3598 | logFC ([1]; SRC (P12931-2) protein abundance, degrader vs DMSO, 1 uM, down): −0.8428 | logFC ([1]; SRC (P12931-2) protein abundance, degrader vs DMSO, 4 hr, down): −0.6408 | logFC ([1]; STK40 (Q8N2I9-4), experiment wp105, direction down): −0.606 | logFC ([1]; STK40 Q8N2I9-4, experiment wp105): −0.606 | logFC ([1]; TNK2 (Q07912-3), experiment wp107, direction down): −1.18 | logFC CDK9 (P50750-2) ([1]; experiment wp016): −0.6515 | logFC PRKAA1 (Q13131-2) ([1]; experiment wp016): −0.4914 | logFC ABL1 (P00519-2) ([1]; experiment wp016, 1 uM): −0.3875 | logFC CDK9 (P50750-2) ([1]; experiment wp016, 1 uM): −1.356 | logFC PRKAA1 (Q13131-2) ([1]; experiment wp016, 1 uM): −0.7977 | logFC RPS6KA1 (Q15418-2) ([1]; experiment wp016, 1 uM): −0.4146 | logFC LCK (P06239-3) [1, 4]: −1.579 | logFC LCK (P06239-3) [1, 5]: −0.9189 | logFC PRKAA1 (Q13131-2) ([1]; experiment wp103): −0.5012 | logFC LCK (P06239-3) [1, 6]: −1.148 | logFC ABL1 (P00519-2) ([1]; experiment wp105): −0.333 | logFC CDK9 (P50750-2) ([1]; experiment wp105): −0.6775 | logFC CDK16 (Q00536-2) ([1]; experiment wp105): −0.6346 | logFC PRKAA1 (Q13131-2) ([1]; experiment wp105): −0.4413 | logFC of CDK18 (Q07002-3) ([1]; experiment wp105): −1.233 | logFC of MARK2 (Q7KZI7-14) ([1]; experiment wp105): −0.4159 | logFC ABL1 (P00519-2) ([1]; experiment wp107): −0.4711 | logFC CDK16 (Q00536-2) ([1]; experiment wp107): −0.4701 | logFC PRKAA1 (Q13131-2) ([1]; experiment wp107): −0.6352 | logFC ULK3 (Q6PHR2-4) ([1]; experiment wp107): −1.084 | logFC LCK (P06239-3) [1, 7]: −1.575 | logFC TGFBR1 (P36897-2) [1, 7]: −0.5264 | logFC ULK3 (Q6PHR2-4) [1, 7]: −1.084 | logFC CDK9 (P50750-2) ([1]; experiment wp133, 2 hr): −0.3971 | logFC PRKAA1 (Q13131-2) ([1]; experiment wp133, 2 hr): −0.3804 | logFC LCK (P06239-3) [1, 8]: −0.5352 | logFC ABL1 (P00519-2) ([1]; experiment wp133, 4 hr): −0.3801 | logFC CDK9 (P50750-2) ([1]; experiment wp133, 4 hr): −1.037 | logFC PRKAA1 (Q13131-2) ([1]; experiment wp133, 4 hr): −0.6752 | logFC RPS6KA1 (Q15418-2) ([1]; experiment wp133, 4 hr): −0.3598 | logFC of MARK2 (Q7KZI7-14) ([1]; experiment wp133, 4 hr): −0.4086 | logFC LCK (P06239-3) [1, 9]: −1.277 | logFC of CDK12 (Q9NYV4-2) ([1]; experiment wp160, 4 hr): −0.8448 | logFC MAP3K12 ([1]; protein MAP3K12 (Q12852-2), experiment wp105, down): −0.6931 | logFC TGFBR1 ([1]; protein TGFBR1 (P36897-2), experiment wp107, down): −0.5264 | logFC TNK1 ([1]; protein TNK1 (Q13470-2), experiment wp114, down): −0.7394 | logFC ALDH18A1 [2]: −0.9684
